Results published in US5159085A, “2-anilino phenylacetic acid derivatives as inhibitors of PLA2 and lipoxygenase” (American Home Products Corporation, priority 1991, dated 1992).
Structures can show the parent of a compound that is named as a salt. Where two headings read alike, the source gives them in different places.

Experiments:
[1] = tested on: LTB4 synthesis by rat glycogen-elicited polymorphonuclear leukocytes (lipoxygenase); assay: Inhibition of LTB4 synthesis by rat glycogen-elicited polymorphonuclear leukocytes (PMN); format: cell-based, rat (female Wistar); details: A 23187 and exogenous AA; for inhibition at 10 µM / inhibition at 0.5 µM: Leukocyte; for inhibition at 0.5 µM: negative value denotes potentiation
Source text: This is especially true with respect to 5,12-diHETE, which is also denoted as LTB4 [see Ford-Hitchinson, J. Roy. Soc. Med., 74, 831 (1981)]. Compounds which inhibit the PLA2 -mediated release of arachidonic acid thereby effectively prevent the oxidation of arachidonic acid to the various leukotriene products via the lipoxygenase cascade. Accordingly, the specificity of action of PLA2 inhibitors can be determined by the activity of test compounds in this assay, which measures the ability of compounds to inhibit the synthesis of LTB4 by rat glycogen-elicited polymorphonuclear leukocytes (PMN) in the presence of exogenous substrate.
(§1) The assay is carried out as follows:
(§2) Rat polymorphonuclear leukocytes (PMNs) are obtained from female Wistar rats (150-200 g) which receive an injection of 6% glycogen (10 ml i.p.). Rats are sacrificed 18-24 hours post injection by CO2 asphyxiation and the elicited cells are harvested by peritoneal lavage using physiological saline (0.9% NaCl). The exudate is centrifuged at 400×g for 10 minutes. The supernatant fluid is discarded and the cell pellet is resuspended to a concentration of 2.0×10^7 cells/ml in HBSS containing Ca^++ and Mg^++ and 10 μM L-cysteine.
(§3) To 1 ml aliquots of cell suspension, test drugs or vehicle are added, then preincubated at 37° C. for 10 minutes. A 23187 (1 μM), [^3 H]-AA (3.0 μCi/ml) and unlabeled AA (1 μM) are then added and the samples are further incubated for 10 minutes. The reaction is terminated by centrifugation and pelleting cells. Supernatants are then analyzed by HPLC analysis on a 15 cm×4.6 mm ID supelcosil LC-18 (Supelco)(3M) column, using a two solvent system at a flow rate of 1.4 ml total flow as follows:
Gradient: (system is equillibrated with Solvent A)
(§4) Percent solvent changes are accomplished in a linear fashion.
(§5) Injections: 150 μl of each supernatant is injected directly onto column and ^3 H arachidonic acid metabolites are monitored using an on-line radioactivity detector (Ramona, IN/US, Fairfield, NJ).
(§6) Standards: 10^4 -2.0×10^4 dpm of eicosanoids of interest are injected in 90 μl EtOH cocktail.
(§7) Co-chromatography with standard [^3 H] leukotriene B4 (LTB4) in medium of stimulated PMN exposed to drug is compared to that found in medium of stimulated cells exposed to no drug, generating percent inhibition.
(§8) Results are expressed as percent inhibition at a given compound dose or as an IC50 value.

[2] = tested on: TxB2 synthesis (cyclooxygenase) by rat glycogen-elicited polymorphonuclear leukocytes; assay: Inhibition of TxB2 synthesis by rat glycogen-elicited PMN (cyclooxygenase); format: cell-based, rat (female Wistar); details: for inhibition at 0.5 µM: negative values denote potentiation of cyclooxygenase; for IC50: rat PMN, read-out: IC50 (TxB2 synthesis)
Experimental: as §2, §3, §4, §5, §6, §7, §8
In this assay, the procedure of Example 19 is carried out as described. However, in order to determine cyclooxygenase activity, the samples are co-chromatographed with authentic reference [^3 H]-TxB2.
The results are calculated as in Example 19 and presented below: […]

human platelet PLA2 = target: T1, human platelet PLA2 (Homo sapiens, UniProt P14555); assay: In vitro isolated phospholipase A2 assay, human platelet PLA2 (arachidonic acid release from 3H-AA E. coli substrate); format: biochemical; details: human platelet; for inhibition at 10 µM: negative values denote potentiation, read-out: % Inhibition at 10 μM HP
T1 construct: Semipurified human platelet acid extract PLA2; from tissue; host or cells: human platelets (semipurified acid extract)
T1 sequence (P14555 21-144): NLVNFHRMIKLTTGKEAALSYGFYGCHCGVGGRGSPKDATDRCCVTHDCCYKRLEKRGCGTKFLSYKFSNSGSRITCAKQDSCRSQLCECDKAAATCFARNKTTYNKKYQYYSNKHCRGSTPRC

[3] = target: T2, human synovial fluid PLA2 (Homo sapiens, UniProt P14555); assay: In vitro isolated phospholipase A2 assay, human synovial fluid PLA2; format: biochemical; details: 10 μM; human synovial fluid; negative values denote potentiation; read-out: % Inhibition at 10 μM HSF
T2 construct: Purified human synovial fluid; from tissue; host or cells: human synovial fluid
T2 sequence (P14555 21-144): T1 sequence (P14555 21-144)
Experimental: The compounds of the invention are tested in an in vitro isolated phospholipase A2 assay to determine the ability of the test compounds to inhibit the release of arachidonic acid from an arachidonic acid-containing substrate by the action of phospholipase A2 enzyme from human and non-human sources.
This assay is carried out as follows:
Into a 15 mL polypropylene tube are added the following:
*pre-incubate at room temperature 30 min prior to substrate addition.
^5 Stock 10 mM prepared in dimethyl sulfoxide. Make 1:2 dilution with
dimethyl sulfoxide and add 1 μ L to 100 μL assay tube.
^6 Two human PLA2 enzymes are used:
b) Purified human synovial fluid.
Incubate the 100 μL reaction mixture for 10 minutes at 37° C. in a shaking water bath. The reaction is terminated by the addition of 2 mL tetrahydrofuran, followed by vortexing. NH2 columns (100 μg/mL--Analytichem International) are conditioned with 0.5 mL tetrahydrofuran followed by 0.5 mL tetrahydrofuran/water (2 mL:0.1 mL, v/v).
The sample is loaded onto the columns and slowly drawn through them. The hydrolyzed arachidonic acid retained in the columns is eluted therefrom with 1 mL tetrahydrofuran/glacial acetic acid (2%). The arachidonic acid is transferred to scintillation vials and quantitated by β-counting analysis. A "total counts" sample is prepared by pipetting 25 μL ^3 H-arachidonate E. coli directly into a scintillation vial to which is added 1 mL tetrahydrofuran. 10 mL aquasol (scintillation cocktail) is added to all samples. [formula]

[4] = tested on: paw edema induced by exogenous PLA2 (snake, A. piscivorus piscivorus); assay: In vivo PLA2 murine paw edema assay; parameters: species or system mouse (male CD-1); details: for change in vivo at 1 mg/kg: Mus musculus, ip, 0.5 h; for % Change in Edema 30 min / change in vivo at 1 mg/kg: 30 min; for ED50 at +10 min: mouse
Experimental: The ability of the compounds of the invention to inhibit paw edema induced by the exogenous administration of PLA2 is measured in the in vivo PLA2 murine paw edema assay.
as §1
Non-fasted, male CD-1 mice (8 weeks old; 31-36 grams) are placed in plastic boxes in groups of six. The right hind paw volume is measured using mercury plethysmography (zero time). […] A solution of purified PLA2, from the diamond back cotton mouth snake (A. piscivorus piscivorus) is prepared in saline at a concentration of 6 μg/ml. Fifty (50) μl (0.3 μg) of this PLA2 solution is injected subcutaneously into the right hind paw with a plastic 1 ml plastic syringe (27 gauge, 1" needle). Paw volume of the injected paw is measured again at 10 minutes, 30 minutes and 60 minutes after PLA2 injection. Animals are euthanized with CO2 at the completion of the study.
The paw edema is calculated by subtracting the zero time volume from the volume recorded at each time period. Mean paw edema for each treatment group is then calculated and expressed as (μl±S.E.). Drug effects are expressed as a percent change from control (vehicle) values. Statistical significance is determined by a one-way analysis of variance with LSD comparison to control (p<0.05). ED50 's are determined using repression analysis.

Compound | inhibition at 0.5 µM ([2]; Rattus norvegicus, Leukocyte) [%] | inhibition at 10 µM [3] [%] | % Change in Edema 10 min ([4]; 10 mg/kg i.p.) | % Change in Edema 30 min ([4]; 10 mg/kg i.p.) [%] | inhibition at 0.5 µM [1] [%] | further results
COC(=O)Cc1cc(OCc2ccc3ccccc3c2)ccc1Nc1c(Cl)cccc1Cl [Example 7, 2-[(2,6-Dichlorophenyl)amino]-5-[(2-naphthalenyl)-methoxy]benzene acetic acid methyl ester] | -26 | -65.4 | -32% | -39 |  | inhibition at 10 µM [1]: 34%; inhibition at 10 µM (human platelet PLA2): 3.6%; % Change in Edema 10 min ([4]; 1 mg/kg i.p.): -54%; change in vivo at 1 mg/kg ([4]; 1 mg/kg i.p.): -44%
COC(=O)Cc1cc(OCc2ccc3ccc(Cl)cc3n2)ccc1Nc1c(Cl)cccc1Cl [Example 5, 5-[(7-Chloro-2-quinolyl)methoxy]-2-[(2,6-dichlorophenyl)amino]benzene acetic acid methyl ester] | 0 | -127 |  |  | 56 | inhibition at 10 µM [1]: 95%; inhibition at 10 µM ([2]; Rattus norvegicus, Leukocyte, at 10 μM): 27%; inhibition at 10 µM (human platelet PLA2): -5.3%
C[C@@H]1C[C@H]2[C@@H]3CCC4=CC(=O)C=C[C@]4(C)[C@@]3(F)[C@@H](O)C[C@]2(C)[C@@]1(O)C(=O)CO [Dexamethasone, reference compound] |  |  |  |  |  | ED50 at +10 min ([4]; p.o. 3 hr, standard drug): 10 mg/kg
O=C1Cc2cc(OCc3ccc4ccc(Cl)cc4n3)ccc2N1c1c(Cl)cccc1Cl [Example 18, 1-(2,6-Dichlorophenyl)-5-[7-chloro-2-(quinolinylmethoxy)]-1,3-dihydro-2H-indol-2-one] |  | 5.1 |  |  |  | inhibition at 10 µM (human platelet PLA2): 2.2%
O=C(O)Cc1cc(OCc2ccc3ccccc3n2)ccc1Nc1ccccc1 [Example 16, 2-(Phenylamino)-5-(2-quinolinylmethoxy)benzene acetic acid] | 10 | -4.3 |  |  | 90 | inhibition at 10 µM (human platelet PLA2): 14.2%
O=C1Cc2cc(OCc3ccc4ccccc4n3)ccc2N1c1ccccc1 [Example 15, 1-Phenyl-5-(2-quinolinylmethoxy)-1,3-dihydro-2H-indol-2-one] | -9 | -24 |  |  | 40 | 
COc1ccc2cc([C@H](C)C(=O)O)ccc2c1 [Naproxen, reference compound] |  |  |  |  |  | ED50 at +10 min ([4]; p.o., standard drugs): 18 mg/kg
COc1cccc2c1cc([N+](=O)[O-])c1c(C(=O)O)cc3c(c12)OCO3 [Aristolochic Acid, reference compound] |  |  |  |  |  | ED50 at +10 min ([4]; p.o., standard drugs): Not Active
COC(=O)Cc1cc(OCc2nc3ccccc3n2C)ccc1Nc1c(Cl)cccc1Cl [Example 10, 2-[(2,6-Dichlorophenyl)amino]-5-[(1-methyl-1H-benzimidazol-2-yl)methoxy]benzene acetic acid methyl ester] | 32 |  | -49% | -36 | 65 | % Change in Edema 10 min ([4]; 1 mg/kg i.p.): -29%; change in vivo at 1 mg/kg ([4]; 1 mg/kg i.p.): -20%
O=C1Cc2cc(OCc3ccc4ccccc4n3)ccc2N1c1c(Cl)cccc1Cl [Example 13] | 10 | -11 |  |  | 89 | % Inhibition HP (human platelet PLA2; "at 50 SM"): 12.5%
Cn1c(COc2ccc(Nc3c(Cl)cccc3Cl)c(CC(=O)O)c2)nc2ccccc21 [Example 11, acetic acid] | -8 | 33.3 |  |  | -6 | 
O=C(O)Cc1cc(OCc2ccc3ccccc3n2)ccc1Nc1c(Cl)cccc1Cl [Example 4, 2-[(2,6-Dichlorophenyl)amino]-5-(2-quinolinylmethoxy)benzene acetic acid 2-amino-2-(hydroxymethyl)-1,3-propanediol salt (1:1)] |  |  |  |  |  | IC50 [2]: 3.7 µM
CONC(=O)Cc1cc(OCc2ccc3ccccc3n2)ccc1Nc1c(Cl)cccc1Cl [Example 12] | -2 | -41.5 | -15% | -45 | 70 | % Change in Edema 60 min ([4]; 10 mg/kg i.p.): -28%; % Change in Edema 10 min ([4]; 50 mg/kg p.o.): -2%; % Change in Edema 30 min ([4]; 50 mg/kg p.o.): -36%; % Change in Edema 60 min ([4]; 50 mg/kg p.o.): -22%
COC(=O)Cc1cc(OCc2ccc3ccccc3n2)ccc1Nc1c(Cl)cccc1Cl [Example 1, 2-[(2,6-Dichlorophenyl)amino]-5-(2-quinolinylmethoxy)-benzene acetic acid methyl ester ethanedioate (1:1)] | 4 |  | -77% | -37 | 96 | % Change in Edema 3 min ([4]; 1 mg/kg i.p.): -10%; % Change in Edema 10 min ([4]; 1 mg/kg i.p.): -31%; % Change in Edema 3 min ([4]; 10 mg/kg i.p.): -39%; change in vivo at 1 mg/kg ([4]; 1 mg/kg i.p.): -23%
Luffarrellolide [reference compound] |  |  |  |  |  | ED50 at +10 min ([4]; p.o., standard drugs): Not Active
O=C(O)Cc1cc(OCc2ccc3ccccc3n2)ccc1Nc1c(Cl)cccc1Cl [Example 3, 2-[(2,6-Dichlorophenyl)amino]-5-(2-quinolinylmethoxy)benzene acetic acid sodium salt] |  | 21.7 | +12% | -10 |  | IC50 ([1]; acetic acid sodium salt): 0.02 µM; IC50 ([2]; acetic acid sodium salt): > 1 µM; % Change in Edema 60 min ([4]; 10 mg/kg i.p.): +12%
